Experimental data published in patent publication US20190227066A1, “COMPOSITIONS AND METHODS FOR DETECTING CANCER CELLS IN A TISSUE SAMPLE” (ISI Life Sciences, Inc., priority 2016, published 2019).

System: SDOV3 cells (an ovarian cancer cell line)
Test: Detection of ovarian cancer cells: uptake and intracellular deacylation, imaged by fluorescence microscopy
Format: cell-based
Conditions: 50 micromolar, folate-free medium (no FBS), washed with HBSS, 20× immersion objective
Method: Compound 24 and comparative compound A were evaluated for their ability to be absorbed by cancer cells and then, in the case of compound 24, deacylated by intracellular esterases so as to regenerate a fluorescent structure. Specifically, approximately 500,000 SDOV3 cells (an ovarian cancer cell line) were seeded into separate 35 mm culture dishes containing a folate-free growth medium (RPMI+10% FBS). The next day, the medium was replaced with a folate-free medium (no FBS). In one culture dish, the medium was supplemented with 25 micromolar of compound 24; and, in another culture dish, the medium was supplemented with 50 micromolar of comparative compound A. After incubation, the cells were washed with HBSS (Hank's balanced salt solution) to remove unbound compound. The cells were then imaged with a 20× immersion objective on a standard upright fluorescent microscope. […] FIG. 1 illustrates a picture showing the fluorescence generated. Note that only the cancer cells evidenced fluorescence and that the solution remained non-fluorescent. […] This evidences that that composition was not suitable for use in the methods described herein.

`Nc1nc2ncc(CNc3ccc(C(=O)NC(CCC(=O)NCCCCCNC(=O)c4cccc(-c5c6ccc(=O)cc-6oc6cc(O)ccc56)c4C(=O)O)C(=O)O)cc3)nc2c(=O)[nH]1` (stereo not shown) [comparative compound A] was tested, and the “fluorescent signal of the cells” value was “burst of fluorescence but immediately the fluorescence was bleached”.
